Results published in patent publication EP3696177A1, “HETEROCYCLIC COMPOUNDS FOR THE CONTROL OF INVERTEBRATE PESTS” (BASF SE, priority 2019, dated 2020).
Read-outs that look alike come from different tables or passages of the source.

What was measured:
Assay type in all cases: in vivo
[1] = tested on: Nephotettix virescens; assay: Rice green leafhopper (Nephotettix virescens) spray test on rice seedlings; conditions: adults, after 72 hours, read-out: mortality in comparison with untreated controls
Protocol: Four to five-week old rice seedlings with cut upper leaf portion are cleaned and washed 24 hours before spraying. The active compounds are formulated in 1:1 acetone:water (vol:vol), and 0.01% vol/vol surfactant (Kinetic) is added. Potted rice seedlings are sprayed with 5-6 ml test solution, air dried, covered with Mylar cages and inoculated with 10 adults. Treated rice plants are kept at about 28-29°C and relative humidity of about 50-60%. Percent mortality is recorded after 72 hours.

[2] = tested on: Anthonomus grandis; assay: Boll weevil (Anthonomus grandis) insect diet microtiter plate test; conditions: 120 h, read-out: mortality in comparison with untreated controls (egg and larval mortality)
Protocol: For evaluating control of boll weevil (Anthonomus grandis) the test unit consisted of 96-well-microtiter plates containing an insect diet and 5-10 A. grandis eggs.
The compounds were formulated using a solution containing 75% v/v water and 25% v/v DMSO. Different concentrations of formulated compounds were sprayed onto the insect diet at 5 µl, using a custom built micro atomizer, at two replications.
After application, microtiter plates were incubated at about 25 + 1°C and about 75 + 5 % relative humidity for 5 days. Egg and larval mortality was then visually assessed.

[3] = tested on: Heliothis virescens; assay: Tobacco budworm (Heliothis virescens) insect diet microtiter plate test; conditions: 120 h, read-out: mortality in comparison with untreated controls (egg and larval mortality)
Protocol: For evaluating control of tobacco budworm (Heliothis virescens) the test unit consisted of 96-well-microtiter plates containing an insect diet and 15-25 H. virescens eggs.
The compounds were formulated using a solution containing 75% v/v water and 25% v/v DMSO. Different concentrations of formulated compounds were sprayed onto the insect diet at 10 µl, us-ing a custom built micro atomizer, at two replications.
After application, microtiter plates were incubated at about 28 + 1°C and about 80 + 5 % relative humidity for 5 days. Egg and larval mortality was then visually assessed.

[4] = tested on: Aphis craccivora; assay: Cowpea aphid (Aphis craccivora) spray test on potted cowpea plants; conditions: aphids of various stages, after 72 hours, read-out: mortality in comparison with untreated controls
Protocol: The active compound is dissolved at the desired concentration in a mixture of 1:1 (vol: vol) distilled water: acetone. Surfactant (Kinetic) is added at a rate of 0.01% (vol/vol). The test solution is prepared at the day of use.
Potted cowpea plants are colonized with approximately 30 - 50 aphids of various stages by man-ually transferring aphid-infested leaf clippings 24 hours before application. Plants are sprayed with the test solutions using a DeVilbiss® hand atomizer at 20- 30 psi (≈ 1.38 to 2.07 bar) after the pest population has been checked. Treated plants are maintained on light carts at about 25- 26°C. Estimate percent mortality is assessed after 72 hours.

[5] = tested on: Tetranychus kanzawai; assay: Red spider mite (Tetranychus kanzawai) spray test on cowpea beans; conditions: 72 h, read-out: mortality in comparison with untreated controls
Protocol: The active compound is dissolved at the desired concentration in a mixture of 1:1 (vol:vol) distilled water: acetone. Add surfactant (Kinetic) is added at a rate of 0.01% (vol/vol). The test solution is prepared at the day of use.
Potted cowpea beans of 4-5 days of age are cleaned with tap water and sprayed with 1-2 ml of the test solution using air driven DeVilbiss® hand atomizer at 20- 30 psi (≈ 1,38 to 2,07 bar). The treated plants are allowed to air dry and afterwards inoculated with 30 or more mites by clipping a cassava leaf section from rearing population. Treated plants are placed inside a holding room at about 25-26°C and about 65-70% relative humidity. Estimate percent mortality is assessed 72 hours after treatment.

[6] = tested on: Megoura viciae; assay: Vetch aphid (Megoura viciae) broad bean leaf disk test; conditions: foliar, 120 h, read-out: mortality in comparison with untreated controls
Protocol: For evaluating control of vetch aphid (Megoura viciae) through contact or systemic means the test unit consisted of 24-well-microtiter plates containing broad bean leaf disks.
The compounds were formulated using a solution containing 75% v/v water and 25% v/v DMSO. Different concentrations of formulated compounds were sprayed onto the leaf disks at 2.5 µl, us-ing a custom built micro atomizer, at two replications.
After application, the leaf disks were air-dried and 5 - 8 adult aphids placed on the leaf disks in-side the microtiter plate wells. The aphids were then allowed to suck on the treated leaf disks and incubated at about 23 + 1°C and about 50 + 5 % relative humidity for 5 days. Aphid mortality and fecundity was then visually assessed.

[7] = tested on: Nezara viridula; assay: Green soldier stink bug (Nezara viridula) soybean pod spray test; conditions: 120 h, late 3rd instar N. viridula, after 5 days, read-out: mortality in comparison with untreated controls
Protocol: The active compound is dissolved at the desired concentration in a mixture of 1:1 (vol:vol) distilled water: aceteone. Surfactant (Kinetic) is added at a rate of 0.01% (vol/vol).The test solution is prepared at the day of use.
Soybean pods are placed in 90 x 50 mm glass Petri dishes lined with moistened filter paper and inoculated with ten late 3rd instar N. viridula. Using a hand atomizer, an approximately 2 ml solution is sprayed into each Petri dish. Treated set-up is kept at about 25-26°C and relative humidity of about 65-70%. Percent mortality is recorded after 5 days.

[8] = tested on: dichromothrips corbetti; assay: Orchid thrips floral-immersion test; conditions: 72 h, read-out: mortality in comparison with untreated controls
Protocol: Dichromothrips corbetti adults used for bioassay are obtained from a colony maintained continu-ously under laboratory conditions. For testing purposes, the test compound is diluted in a 1:1 mix-ture of acetone:water (vol:vol), plus Kinetic at a rate of 0.01% v/v.
Thrips potency of each compound is evaluated by using a floral-immersion technique. Each orchid petal is dipped into treatment solution and allowed to dry in Petri dishes. Treated petals are placed into individual re-sealable plastic along with about 20 adult thrips. All test arenas are held under dark condition and a temperature of about 28°C for duration of the assay. The percent mor-tality is recorded 72 hours after treatment.

[9] = tested on: Myzus persicae; assay: Green peach aphid (Myzus persicae) artificial diet/membrane systemic test; conditions: 72 h, read-out: mortality in comparison with untreated controls
Excerpt: For evaluating control of green peach aphid (Myzus persicae) through systemic means the test unit consisted of 96-well-microtiter plates containing liquid artificial diet under an artificial membrane.
The compounds were formulated using a solution containing 75% v/v water and 25% v/v DMSO. Different concentrations of formulated compounds were pipetted into the aphid diet, using a cus-tom built pipetter, at two replications.
After application, 5 - 8 adult aphids were placed on the artificial membrane inside the microtiter plate wells. The aphids were then allowed to suck on the treated aphid diet and incubated at about 23 + 1°C and about 50 + 5 % relative humidity for 3 days. Aphid mortality and fecundity was then visually assessed.

[10] = tested on: Plutella xylostella; assay: Diamond back moth (Plutella xylostella) cabbage leaf disc dip test; conditions: foliar, 72 h, read-out: mortality in comparison with untreated controls
Protocol: The active compound is dissolved at the desired concentration in a mixture of 1:1 (vol:vol) distilled water: acetone. Surfactant (Kinetic) is added at a rate of 0.01% (vol/vol). The test solution is pre-pared at the day of use.
Cabbage leaf discs (60mm in diameter) are dipped in test solution and air-dried. Treated leaves are placed in petri dishes lined with moistened filter paper and inoculated with ten 3rd instar larvae. Mortality is recorded 72 hours after treatment. Feeding damage is also recorded using a scale of 0-100%.

[11] = tested on: Caenorhabditis elegans; assay: Caenorhabditis elegans liquid diet microtiter plate test; conditions: 96 h, read-out: mortality in comparison with untreated controls (nematode motility (mortality))
Protocol: For evaluating control of Caenorhabditis elegans through contact or systemic means the test unit consisted of 96-well-microtiter plates containing a liquid diet.
The compounds or mixtures were formulated using a solution containing 75% water and 25% DMSO. Different concentrations of formulated compounds were sprayed into the microtiter plate wells at 5µl per well, using a custom built micro atomizer, at two replications. Mixed instar 60-100 C. elegans were transferred into the micro-titer plate wells. After application, the nematodes were incubated at 18 + 1°C, 70 + 5 % RH for 4 days. Nematode motility (mortality) was then visually assessed.

[12] = tested on: Aedes aegypti; assay: whole plant or invertebrate; conditions: 48 h, A. aegypti larvae, incubated 2 days, read-out: mortality in comparison with untreated controls (larval mortality)
Protocol: For evaluating control of yellow fever mosquito (Aedes aegypti) the test unit consisted of 96-well-microtiter plates containing 200µl of tap water per well and 5-15 freshly hatched A. aegypti larvae.
The active compounds were formulated using a solution containing 75% (v/v) water and 25% (v/v) DMSO. Different concentrations of formulated compounds or mixtures were sprayed onto the insect diet at 2.5µl, using a custom built micro atomizer, at two replications.
After application, microtiter plates were incubated at 28 + 1°C, 80 + 5 % RH for 2 days. Larval mortality was then visually assessed.

CCN1C(=O)SC(NC(=O)c2ccc(C3=NOC(c4cc(Cl)c(F)c(Cl)c4)(C(F)(F)F)C3)cc2Cl)C1=O (stereo not drawn) [Compound I-1-7]
> 75%: mortality at 300 ppm [1] | mortality at 2500 ppm [2] | mortality at 2500 ppm [3] | mortality at 300 ppm [4] | mortality at 300 ppm ([5]; topical) | mortality at 2500 ppm [6] | mortality at 300 ppm [7] | mortality at 300 ppm [8] | mortality at 2500 ppm [9] | mortality at 300 ppm [10] | mortality at 2500 ppm [11] | mortality at 2500 ppm [12]

CN1C(=O)SC(NC(=O)c2ccc(C3=NOC(c4cc(Cl)c(F)c(Cl)c4)(C(F)(F)F)C3)c3c2CCC3)C1=O (stereo not drawn) [Compound I-1-9]
> 75%: mortality at 300 ppm [1] | mortality at 2500 ppm [2] | mortality at 2500 ppm [3] | mortality at 300 ppm [4] | mortality at 300 ppm ([5]; topical) | mortality at 2500 ppm [6] | mortality at 300 ppm [7] | mortality at 300 ppm [8] | mortality at 2500 ppm [9] | mortality at 300 ppm [10] | mortality at 2500 ppm [11] | mortality at 2500 ppm [12]

Cc1cc(C2=NOC(c3cc(Cl)c(F)c(Cl)c3)(C(F)(F)F)C2)ccc1C(=O)NC1SC(=O)N(C(C)C)C1=O (stereo not drawn) [Compound I-1-11]
> 75%: mortality at 300 ppm [1] | mortality at 2500 ppm [2] | mortality at 2500 ppm [3] | mortality at 300 ppm [4] | mortality at 300 ppm ([5]; topical) | mortality at 2500 ppm [6] | mortality at 300 ppm [7] | mortality at 300 ppm [8] | mortality at 2500 ppm [9] | mortality at 300 ppm [10] | mortality at 2500 ppm [11] | mortality at 2500 ppm [12]

CCN1C(=O)SC(NC(=O)c2ccc(C3=NCC(c4cc(Cl)c(F)c(Cl)c4)(C(F)(F)F)C3)c3c2CCC3)C1=O (stereo not drawn) [Compound I-2-1]
> 75%: mortality at 300 ppm [1] | mortality at 2500 ppm [2] | mortality at 2500 ppm [3] | mortality at 300 ppm [4] | mortality at 300 ppm ([5]; topical) | mortality at 2500 ppm [6] | mortality at 300 ppm [7] | mortality at 300 ppm [8] | mortality at 2500 ppm [9] | mortality at 300 ppm [10] | mortality at 2500 ppm [11] | mortality at 2500 ppm [12]

CN1COC(CNC(=O)c2ccc(C3=NOC(c4cc(Cl)c(F)c(Cl)c4)(C(F)(F)F)C3)c3c2CCC3)C1=O (stereo not drawn) [Compound I-3-1]
> 75%: mortality at 300 ppm [1] | mortality at 2500 ppm [2] | mortality at 2500 ppm [3] | mortality at 300 ppm [4] | mortality at 300 ppm ([5]; topical) | mortality at 2500 ppm [6] | mortality at 300 ppm [7] | mortality at 300 ppm [8] | mortality at 2500 ppm [9] | mortality at 300 ppm [10] | mortality at 2500 ppm [11] | mortality at 2500 ppm [12]

CN1COC(CNC(=O)c2ccc(C3=NOC(c4cc(Cl)c(F)c(Cl)c4)(C(F)(F)F)C3)cc2Cl)C1=O (stereo not drawn) [Compound I-3-5, 2-chloro-4-[5-(3,5-dichloro-4-fluoro-phenyl)-5-(trifluoromethyl)-4H-isoxazol-3-yl]-N-[(3-methyl-4-oxo-oxazolidin-5-yl)methyl]benzamide]
> 75%: mortality at 300 ppm [1] | mortality at 2500 ppm [2] | mortality at 2500 ppm [3] | mortality at 300 ppm [4] | mortality at 300 ppm [5] | mortality at 2500 ppm [6] | mortality at 300 ppm [7] | mortality at 300 ppm [8] | mortality at 2500 ppm [9] | mortality at 300 ppm [10] | mortality at 2500 ppm [11] | mortality at 2500 ppm [12]
